US10597388B2, “Pyridazinone herbicides” (FMC CORPORATION, priority 2014, dated 2020)

Legend:
Assay type in all cases: in vivo
[1] = tested on: barnyardgrass (Echinochloa crus-galli); assay: Test A greenhouse herbicide test, pre- and postemergence
Procedure, shortened: (§1)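 Seeds sown in loam–sand blend got a preemergence directed soil spray of compound in non-phytotoxic solvent with surfactant. Postemergence treatment was given at 2–10 cm, one- to two-leaf stage. After ~10 d in greenhouse, injury was rated visually vs untreated controls, 0 (no effect) to 100 (complete control).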

corn (Zea mays) = assay: as above; conditions: Postemergence; for Corn plant response rating: 0 is no effect, 100 is complete control
Procedure, shortened: as §1

[2] = tested on: foxtail, giant (giant foxtail, Setaria faberii); assay: as above
Procedure, shortened: as §1

kochia (Kochia scoparia) = assay: as above
Procedure, shortened: as §1

[3] = tested on: pigweed (Amaranthus retroflexus); assay: as above
Procedure, shortened: as §1

[4] = tested on: ragweed (common ragweed, Ambrosia elatior); assay: as above
Procedure, shortened: as §1

[5] = tested on: ryegrass, Italian (Italian ryegrass, Lolium multiflorum); assay: as above
Procedure, shortened: as §1

[6] = tested on: wheat (Triticum aestivum); assay: as above; conditions: Postemergence; for Wheat plant response rating: 0 is no effect, 100 is complete control
Procedure, shortened: as §1

[7] = tested on: blackgrass (Alopecurus myosuroides); assay: Test A greenhouse herbicide test, postemergence; conditions: for Blackgrass plant response rating: 0 is no effect, 100 is complete control
Procedure, shortened: (§2)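 Plants grown in loam soil/sand blend pots were treated postemergence at 2 to 10 cm height, one- to two-leaf stage, with formulated test chemicals. After approximately 10 d in a greenhouse, injury was rated visually against untreated controls on a 0 to 100 scale (0 no effect, 100 complete control).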

[8] = tested on: galium (catchweed bedstraw, Galium aparine); assay: Test A greenhouse herbicide test, postemergence; conditions: for Galium plant response rating: 0 is no effect, 100 is complete control
Procedure, shortened: as §2

[9] = tested on: barnyardgrass (Echinochloa crus-galli); assay: Test B flooded paddy test; conditions: 250 g ai/ha, Flood; visual rating on scale of 0 to 100 where 0 is no effect and 100 is complete control; 13 to 15 d after treatment
Procedure, shortened: (§3)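 Plants at the 2-leaf stage were flooded to 3 cm above soil, and test compounds were applied directly into the paddy water, which was held at that depth throughout. After 13 to 15 d in a greenhouse, injury was rated visually against untreated controls on a 0–100 scale (0 no effect, 100 complete control).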

[10] = tested on: ducksalad (Heteranthera limosa); assay: Test B flooded paddy test; conditions: 250 g ai/ha, Flood; visual rating on scale of 0 to 100 where 0 is no effect and 100 is complete control; 13 to 15 d after treatment
Procedure, shortened: as §3

rice (Oryza sativa) = assay: Test B flooded paddy test; conditions: 250 g ai/ha, Flood; visual rating on scale of 0 to 100 where 0 is no effect and 100 is complete control; 13 to 15 d after treatment
Procedure, shortened: as §3

[11] = tested on: sedge, umbrella (small-flower umbrella sedge, Cyperus difformis); assay: Test B flooded paddy test; conditions: 250 g ai/ha, Flood; visual rating on scale of 0 to 100 where 0 is no effect and 100 is complete control; 13 to 15 d after treatment
Procedure, shortened: as §3

[12] = Postemergence, 125 g ai/ha, 0 to 100 scale where 0 is no effect and 100 is complete control
[13] = Postemergence, 500 g ai/ha, 0 to 100 scale, 0 is no effect, 100 is complete control
[14] = Preemergence, 125 g ai/ha, 0 to 100 scale where 0 is no effect and 100 is complete control
[15] = Preemergence, 500 g ai/ha, 0 to 100 scale, 0 no effect, 100 complete control
[16] = 125 g ai/ha, 0 to 100 scale where 0 is no effect and 100 is complete control
[17] = Postemergence, 125 g ai/ha, 0 to 100 scale, 0 no effect, 100 complete control
[18] = Postemergence, 500 g ai/ha, visual rating after approx. 10 d, 0 to 100 scale (0 no effect, 100 complete control)
[19] = Preemergence, 125 g ai/ha, visual injury rating, 0 to 100 scale (0 no effect, 100 complete control), approx. 10 d
[20] = Preemergence, 500 g ai/ha, 0 to 100 scale where 0 is no effect and 100 is complete control
[21] = 125 g ai/ha, 0 to 100 scale, 0 no effect, 100 complete control
[22] = 500 g ai/ha, visual rating after approx. 10 d, 0 to 100 scale (0 no effect, 100 complete control)
[23] = Postemergence, 1000 g ai/ha, 0 to 100 scale, 0 is no effect, 100 is complete control
[24] = Preemergence, 1000 g ai/ha, 0 to 100 scale, 0 no effect, 100 complete control

CC(=O)Oc1c(C)nn(C)c(=O)c1-c1c(C)sc2cc(C)cc(C)c12 [Compound 44]
10: Plant response rating, Ragweed [4, 15]
0: Plant response rating, Barnyardgrass [1, 12] | Barnyardgrass plant response rating [1, 13] | Barnyardgrass plant response rating [1, 14] | Plant response rating, Barnyardgrass [1, 15] | Plant response rating, Corn (corn (Zea mays); [16]) | Corn plant response rating (corn (Zea mays); 500 g ai/ha, 0 to 100 scale) | Plant response rating, Foxtail, Giant [2, 12] | Foxtail, Giant plant response rating [2, 13] | Foxtail, Giant plant response rating [2, 14] | Plant response rating, Foxtail, Giant [2, 15] | Plant response rating, Kochia (kochia (Kochia scoparia); [12]) | Kochia plant response rating (kochia (Kochia scoparia); [13]) | Kochia plant response rating (kochia (Kochia scoparia); [14]) | Plant response rating, Kochia (kochia (Kochia scoparia); [15]) | Plant response rating, Pigweed [3, 12] | Pigweed plant response rating [3, 13] | Pigweed plant response rating [3, 14] | Plant response rating, Pigweed [3, 15] | Plant response rating, Ragweed [4, 12] | Ragweed plant response rating [4, 13] | Ragweed plant response rating [4, 14] | Plant response rating, Ryegrass, Italian [5, 12] | Ryegrass, Italian plant response rating [5, 13] | Ryegrass, Italian plant response rating [5, 14] | Plant response rating, Ryegrass, Italian [5, 15] | Plant response rating, Wheat [6, 16] | Wheat plant response rating ([6]; 500 g ai/ha, 0 to 100 scale) | Plant response rating, Blackgrass [7, 16] | Blackgrass plant response rating ([7]; 500 g ai/ha, 0 to 100 scale) | Plant response rating, Barnyardgrass [9] | Plant response rating, Ducksalad [10] | Plant response rating, Rice (rice (Oryza sativa)) | Plant response rating, Sedge, Umbrella [11]
30: Plant response rating, Galium [8, 16]
70: Galium plant response rating ([8]; 500 g ai/ha, 0 to 100 scale)

Cc1nn(C)c(=O)c(-c2ccc(Cl)c3ccccc23)c1OS(=O)(=O)N(C)C [Compound 185]
10: Plant response rating, Barnyardgrass [1, 17] | Plant response rating, Kochia (kochia (Kochia scoparia); [20]) | Plant response rating, Ragweed [4, 17]
70: Plant response rating, Kochia (kochia (Kochia scoparia); [17]) | Plant response rating, Ryegrass, Italian [5, 17] | Plant response rating, Galium [8, 21]
60: Plant response rating, Pigweed [3, 20]
40: Plant response rating, Ragweed [4, 20] | Plant response rating, Ryegrass, Italian [5, 20]
100: Plant response rating, Kochia (kochia (Kochia scoparia); [18])
80: Plant response rating, Ryegrass, Italian [5, 18]
30: Plant response rating, Barnyardgrass [1, 18] | Plant response rating, Corn (corn (Zea mays); [22]) | Plant response rating, Foxtail, Giant [2, 20]
50: Plant response rating, Barnyardgrass [1, 20] | Plant response rating, Pigweed [3, 17] | Plant response rating, Ragweed [4, 18]
20: Plant response rating, Foxtail, Giant [2, 18] | Plant response rating, Pigweed [3, 19] | Plant response rating, Blackgrass [7, 22]
0: Plant response rating, Barnyardgrass [1, 19] | Plant response rating, Corn (corn (Zea mays); [21]) | Plant response rating, Foxtail, Giant [2, 17] | Plant response rating, Foxtail, Giant [2, 19] | Plant response rating, Kochia (kochia (Kochia scoparia); [19]) | Plant response rating, Ragweed [4, 19] | Plant response rating, Ryegrass, Italian [5, 19] | Plant response rating, Wheat [6, 21] | Plant response rating, Wheat [6, 22] | Plant response rating, Blackgrass [7, 21] | Plant response rating, Barnyardgrass [9] | Plant response rating, Ducksalad [10] | Plant response rating, Rice (rice (Oryza sativa)) | Plant response rating, Sedge, Umbrella [11]
90: Plant response rating, Pigweed [3, 18] | Plant response rating, Galium [8, 22]

Cc1ccc(-c2c(O)cnn(C)c2=O)c2ccccc12 [Compound 50]
10: Plant response rating, Ryegrass, Italian [5, 15] | Blackgrass plant response rating ([7]; 500 g ai/ha, 0 to 100 scale)
20: Kochia plant response rating (kochia (Kochia scoparia); [13]) | Plant response rating, Pigweed [3, 12] | Ragweed plant response rating [4, 13] | Plant response rating, Ryegrass, Italian [5, 12]
60: Plant response rating, Galium [8, 16]
50: Pigweed plant response rating [3, 13]
0: Plant response rating, Barnyardgrass [1, 12] | Barnyardgrass plant response rating [1, 13] | Barnyardgrass plant response rating [1, 14] | Plant response rating, Barnyardgrass [1, 15] | Plant response rating, Corn (corn (Zea mays); [16]) | Corn plant response rating (corn (Zea mays); 500 g ai/ha, 0 to 100 scale) | Plant response rating, Foxtail, Giant [2, 12] | Foxtail, Giant plant response rating [2, 13] | Foxtail, Giant plant response rating [2, 14] | Plant response rating, Foxtail, Giant [2, 15] | Plant response rating, Kochia (kochia (Kochia scoparia); [12]) | Kochia plant response rating (kochia (Kochia scoparia); [14]) | Plant response rating, Kochia (kochia (Kochia scoparia); [15]) | Pigweed plant response rating [3, 14] | Plant response rating, Pigweed [3, 15] | Plant response rating, Ragweed [4, 12] | Ragweed plant response rating [4, 14] | Plant response rating, Ragweed [4, 15] | Ryegrass, Italian plant response rating [5, 14] | Plant response rating, Wheat [6, 16] | Wheat plant response rating ([6]; 500 g ai/ha, 0 to 100 scale) | Plant response rating, Blackgrass [7, 16] | Plant response rating, Barnyardgrass [9] | Plant response rating, Ducksalad [10] | Plant response rating, Rice (rice (Oryza sativa)) | Plant response rating, Sedge, Umbrella [11]
40: Ryegrass, Italian plant response rating [5, 13]
80: Galium plant response rating ([8]; 500 g ai/ha, 0 to 100 scale)

Cc1cc(C)c2sc(C)c(-c3c(OC(=O)C(C)(C)C)c(C)nn(C)c3=O)c2c1 [Compound 43]
80: Blackgrass plant response rating ([7]; 500 g ai/ha, 0 to 100 scale)
50: Plant response rating, Foxtail, Giant [2, 15] | Kochia plant response rating (kochia (Kochia scoparia); [14]) | Plant response rating, Galium [8, 16]
40: Plant response rating, Ryegrass, Italian [5, 12]
70: Foxtail, Giant plant response rating [2, 13] | Plant response rating, Ryegrass, Italian [5, 15]
30: Barnyardgrass plant response rating [1, 13] | Plant response rating, Blackgrass [7, 16]
60: Ryegrass, Italian plant response rating [5, 13]
0: Plant response rating, Barnyardgrass [1, 12] | Barnyardgrass plant response rating [1, 14] | Plant response rating, Corn (corn (Zea mays); [16]) | Corn plant response rating (corn (Zea mays); 500 g ai/ha, 0 to 100 scale) | Plant response rating, Foxtail, Giant [2, 12] | Foxtail, Giant plant response rating [2, 14] | Plant response rating, Kochia (kochia (Kochia scoparia); [12]) | Plant response rating, Pigweed [3, 12] | Pigweed plant response rating [3, 14] | Plant response rating, Ragweed [4, 12] | Ragweed plant response rating [4, 13] | Ragweed plant response rating [4, 14] | Plant response rating, Wheat [6, 16] | Wheat plant response rating ([6]; 500 g ai/ha, 0 to 100 scale) | Plant response rating, Barnyardgrass [9] | Plant response rating, Ducksalad [10] | Plant response rating, Rice (rice (Oryza sativa)) | Plant response rating, Sedge, Umbrella [11]
10: Plant response rating, Barnyardgrass [1, 15] | Kochia plant response rating (kochia (Kochia scoparia); [13]) | Pigweed plant response rating [3, 13] | Plant response rating, Pigweed [3, 15] | Plant response rating, Ragweed [4, 15] | Ryegrass, Italian plant response rating [5, 14]
90: Galium plant response rating ([8]; 500 g ai/ha, 0 to 100 scale)
20: Plant response rating, Kochia (kochia (Kochia scoparia); [15])

Cc1nn(C)c(=O)c(-c2cccc3ccccc23)c1OC(=O)C=Cc1ccccc1 [Compound 183]
90: Kochia plant response rating (kochia (Kochia scoparia); [23]) | Pigweed plant response rating [3, 23] | Plant response rating, Pigweed [3, 24] | Plant response rating, Ryegrass, Italian [5, 24] | Galium plant response rating ([8]; 1000 g ai/ha, 0 to 100 scale)
60: Plant response rating, Foxtail, Giant [2, 24]
80: Plant response rating, Ragweed [4, 24] | Blackgrass plant response rating ([7]; 1000 g ai/ha, 0 to 100 scale)
10: Corn plant response rating (corn (Zea mays); 1000 g ai/ha, 0 to 100 scale)
0: Wheat plant response rating ([6]; 1000 g ai/ha, 0 to 100 scale) | Plant response rating, Barnyardgrass [9] | Plant response rating, Ducksalad [10] | Plant response rating, Rice (rice (Oryza sativa)) | Plant response rating, Sedge, Umbrella [11]
70: Foxtail, Giant plant response rating [2, 23] | Plant response rating, Kochia (kochia (Kochia scoparia); [24]) | Ragweed plant response rating [4, 23]
40: Barnyardgrass plant response rating [1, 23] | Plant response rating, Barnyardgrass [1, 24]
100: Ryegrass, Italian plant response rating [5, 23]
